One compound from patent publication US11839614B2, “Methods for treating or mitigating cardiotoxicity characterized by inhibition of adenosine A2 signaling and/or adenosine A2 receptor expression” (INTRA-CELLULAR THERAPIES, INC., priority 2018, dated 2023) can be followed below.

The nature of one series: Plasma level in mice. In kind it is in vivo. The note with it: iv, mouse, 15 minutes after i.v. dosing. The method, then:
Rabbit dosing at 0.1 mg/kg i.v. yields plasma values of 213±88 ng/mL at 15 min. Mouse plasma levels 15 minutes after i.v. dosing was 334+/−74 ng/mL. Therapeutic levels are 100-300 ng/mL, and so analysis is presented after 120 min for P.O. and after 20 min for i.v. (somewhat sooner in rabbit and mouse due to faster kinetics).
To test this, mice were administered the same or higher intravenous bolus doses (0.1, 0.5 mg/kg) as used in dogs and rabbits, and studied using a similar preparation to the rabbit.

The target of a further series is T1, r-hPDE1A (Homo sapiens, UniProt P54750).
T1 construct: Its Kis for full-length recombinant r-hPDE1A, 1B, and 1C are 34, 380, and 37 pM
As to the kind of experiment: Ki for full-length recombinant PDE1A. In kind it is biochemical. An excerpt: Additional pharmaceuticals used in the following examples are dobutamine (Hospira Inc., Lake Forest, Ill.), esmolol HCl (Mylan, Rockford, Ill.), MRS1754 (Tocris Bioscience, Bristol, UK), and Hespan (6% Hetastarch in 0.9% NaCl B. Braun Medical Inc., Bethlehem, Pa.).

T1 sequence (P54750 whole entry): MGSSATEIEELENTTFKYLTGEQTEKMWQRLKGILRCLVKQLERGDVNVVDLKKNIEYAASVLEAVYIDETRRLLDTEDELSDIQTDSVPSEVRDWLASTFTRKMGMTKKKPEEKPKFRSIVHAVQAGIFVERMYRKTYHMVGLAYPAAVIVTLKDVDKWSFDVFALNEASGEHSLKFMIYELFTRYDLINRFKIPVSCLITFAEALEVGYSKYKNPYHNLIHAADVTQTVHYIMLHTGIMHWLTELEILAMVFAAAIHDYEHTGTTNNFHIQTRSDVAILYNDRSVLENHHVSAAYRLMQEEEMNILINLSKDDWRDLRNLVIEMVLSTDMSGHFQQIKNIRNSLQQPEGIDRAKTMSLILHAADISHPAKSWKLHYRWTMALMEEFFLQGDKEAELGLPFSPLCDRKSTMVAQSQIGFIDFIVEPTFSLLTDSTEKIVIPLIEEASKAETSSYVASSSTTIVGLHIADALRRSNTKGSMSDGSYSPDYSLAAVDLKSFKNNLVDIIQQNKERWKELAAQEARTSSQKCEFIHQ

Usually Ki stands for the dissociation constant of the complex between target and ligand, obtained from inhibition or displacement. As to `CN1C(=O)c2c(nn(Cc3ccc(-c4cccc(F)n4)cc3)c2Nc2ccccc2)N2C1=N[C@@H]1CCC[C@@H]12` [Compound 1, (6aR,9aS)-2-(4-(6-fluoropyridin-2-yl)benzyl)-5-methyl-3-(phenyl-amino)-5,6a,7,8,9,9a-hexahydrocyclopenta-[4,5]imidazo[1,2-a]pyrazolo[4,3-e]pyrimidin-4-(2H)-one monophosphate], in the series “Plasma level in mice”, the concentration at 15 min worked out at 334 ng/mL. In addition, the Ki on r-hPDE1A stood at 0.034 nM.
